Like-named read-outs stand apart in the source and are kept apart here.

Broadly, the inhibition is the drop in the measured response relative to a control, in per cent.

The target in this test is T1, IL33 and ST2 binding (Homo sapiens, UniProt O95760).
T1 sequence (O95760 112-270 limits assumed): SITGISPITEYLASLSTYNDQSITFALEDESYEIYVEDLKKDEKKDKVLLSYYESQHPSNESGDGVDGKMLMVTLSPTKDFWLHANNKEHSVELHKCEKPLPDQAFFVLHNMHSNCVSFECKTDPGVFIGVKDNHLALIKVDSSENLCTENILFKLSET
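Note: plate ELISA with coated Flag-tagged human IL-33 and His-tagged human ST2, bound ST2 detected by anti-His HRP and TMB absorbance at 450 nm, 2 h compound incubation.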

As to `COc1ccc(-c2nc(C(=O)NCCN3CCN(C)CC3)c(-c3ccccc3)o2)cc1` [Compound 213, 2-(4-Methoxyphenyl)-N-(2-(4-methylpiperazin-1-yl)ethyl)-5-phenyloxazole-4-carboxamide], the inhibition is -34% (30 µM) and -9% (100 µM).
In the same order, the values of `COc1ccc(-c2nc(C(=O)NCCN(C)C)c(-c3ccccc3[N+](=O)[O-])o2)cc1` [Compound 214, N-(2-(Dimethylamino)ethyl)-2-(4-methoxyphenyl)-5-(2-nitrophenyl)oxazole-4-carboxamide] are -28% and -49%.
The matching figures for `COc1ccc(-c2nc(C(=O)NCCN3CCN(C)CC3)c(-c3ccccc3[N+](=O)[O-])o2)cc1` [Compound 215, 2-(4-Methoxyphenyl)-N-(2-(4-methylpiperazin-1-yl)ethyl)-5-(2-nitrophenyl)oxazole-4-carboxamide]: -12% and 33%.
For `COc1ccc(-c2nc(C(=O)N3CCN(CCN(C)C)CC3)c(-c3ccccc3[N+](=O)[O-])o2)cc1` [Compound 216, (4-(2-(Dimethylamino)ethyl)piperazin-1-yl)(2-(4-methoxyphenyl)-5-(2-nitrophenyl)oxazol-4-yl)methanone], the inhibition by setting is: (30 µM) 46%; (100 µM) 84%.
In the same order, the values of `COc1ccc(-c2nc(C(=O)N3CCN(CCN(C)C)CC3)c(-c3ccc([N+](=O)[O-])cc3)o2)cc1` [Compound 218, (4-(2-(Dimethylamino)ethyl)piperazin-1-yl)(2-(4-methoxyphenyl)-5-(4-nitrophenyl)oxazol-4-yl)methanone] are 32% and 39%.
The matching figures for `COc1ccc(-c2nc(C(=O)NCCN3CCN(C)CC3)c(-c3ccc([N+](=O)[O-])cc3)o2)cc1` [Compound 219, 2-(4-methoxyphenyl)-N-(2-(4-methylpiperazin-1-yl)ethyl)-5-(4-nitrophenyl)oxazole-4-carboxamide]: 11% and 44%.
The matching figures for `CN(C)CCNC(=O)c1nc(-c2cccc(F)c2)oc1-c1ccccc1` [Compound 220, N-(2-(Dimethylamino)ethyl)-2-(3-fluorophenyl)-5-phenyloxazole-4-carboxamide]: -2% and -14%.
`CN1CCN(CCNC(=O)c2nc(-c3cccc(F)c3)oc2-c2ccccc2)CC1` [Compound 221, 2-(3-Fluorophenyl)N-(2-(4-methylpiperazin-1-yl)ethyl)-5-phenyloxazole-4-carboxamide]: the inhibition (30 µM) is -34% and the inhibition (100 µM) was -21%.
As to `CN(C)CCNC(=O)c1nc(-c2cccc(F)c2)oc1-c1ccccc1[N+](=O)[O-]` [Compound 222, N-(2-(Dimethylamino)ethyl)-2-(3-fluorophenyl)-5-(2-nitrophenyl)oxazole-4-carboxamide], the inhibition (30 µM) is -28% and the inhibition (100 µM) is -16%.
Turning to `CN1CCN(CCNC(=O)c2nc(-c3cccc(F)c3)oc2-c2ccccc2[N+](=O)[O-])CC1` [Compound 223, 2-(3-Fluorophenyl)-N-(2-(4-methylpiperazin-1-yl)ethyl)-5-(2-nitrophenyl)oxazole-4-carboxamide], the inhibition runs as follows: (30 µM) 29%; (100 µM) 38%.
In the same order, the values of `CN(C)CCNC(=O)c1nc(-c2ccc(F)cc2)oc1-c1ccccc1` [Compound 224, N-(2-(Dimethylamino)ethyl)-2-(4-fluorophenyl)-5-phenyloxazole-4-carboxamide] are -13% and -18%.
In the same order, the values of `CN1CCN(CCNC(=O)c2nc(-c3ccc(F)cc3)oc2-c2ccccc2)CC1` [Compound 225, 2-(4-Fluorophenyl)-N-(2-(4-methylpiperazin-1-yl)ethyl)-5-phenyloxazole-4-carboxamide] are -6% and 7%.
Take `CN(C)CCNC(=O)c1nc(-c2ccc(F)cc2)oc1-c1ccccc1[N+](=O)[O-]` [Compound 226, N-(2-(Dimethylamino)ethyl)-2-(4-fluorophenyl)-5-(2-nitrophenyl)oxazole-4-carboxamide]: the inhibition is, setting by setting: (30 µM) -25%; (100 µM) -8%.
The matching figures for `CN1CCN(CCNC(=O)c2nc(-c3ccc(F)cc3)oc2-c2ccccc2[N+](=O)[O-])CC1` [Compound 227, 2-(4-Fluorophenyl)-N-(2-(4-methylpiperazin-1-yl)ethyl)-5-(2-nitrophenyl)oxazole-4-carboxamide]: -22% and -28%.
The matching figures for `CN(C)CCN1CCN(C(=O)c2nc(-c3ccc(F)cc3)oc2-c2ccccc2[N+](=O)[O-])CC1` [Compound 228, (4-(2-(Dimethylamino)ethyl)piperazin-1-yl)(2-(4-fluorophenyl)-5-(2-nitrophenyl)oxazol-4-yl)methanone]: 24% and 43%.
In the same order, the values of `CN(C)CCNC(=O)c1nc(-c2ccc(F)cc2)oc1-c1ccc([N+](=O)[O-])cc1` [Compound 229, N-(2-(Dimethylamino)ethyl)-2-(4-fluorophenyl)-5-(4-nitrophenyl)oxazole-4-carboxamide] are -54% and -98%.
Take `CN1CCN(CCNC(=O)c2nc(-c3ccc(F)cc3)oc2-c2ccc([N+](=O)[O-])cc2)CC1` [Compound 230, 2-(4-Fluorophenyl)-N-(2-(4-methylpiperazin-1-yl)ethyl)-5-(4-nitrophenyl)oxazole-4-carboxamide]: the inhibition reads like this: (30 µM) 15%; (100 µM) 0%.
The matching figures for `CN1CCN(CCNC(=O)c2nc(-c3ccc(F)c(F)c3)oc2-c2ccccc2)CC1` [Compound 232, 2-(3,4-Difluorophenyl)-N-(2-(4-methylpiperazin-1-yl)ethyl)-5-phenyloxazole-4-carboxamide]: -9% and 3%.
In the same order, the values of `CN(C)CCNC(=O)c1nc(-c2ccc(F)c(F)c2)oc1-c1ccccc1[N+](=O)[O-]` [Compound 233, 2-(3,4-Difluorophenyl)-N-(2-(dimethylamino)ethyl)-5-(2-nitrophenyl)oxazole-4-carboxamide] are -27% and -27%.
In the same order, the values of `CN1CCN(CCNC(=O)c2nc(-c3ccc(F)c(F)c3)oc2-c2ccccc2[N+](=O)[O-])CC1` [Compound 234, 2-(3,4-Difluorophenyl)-N-(2-(4-methylpiperazin-1-yl)ethyl)-5-(2-nitrophenyl)oxazole-4-carboxamide] are 13% and 19%.
As for `CN(C)CCNC(=O)c1nc(-c2cc(F)cc(F)c2)oc1-c1ccccc1` [Compound 235, 2-(3,5-Difluorophenyl)-N-(2-(dimethylamino)ethyl)-5-phenyloxazole-4-carboxamide], the inhibition (30 µM) turned out to be 3% and the inhibition (100 µM) stood at 36%.
As to `CN1CCN(CCNC(=O)c2nc(-c3cc(F)cc(F)c3)oc2-c2ccccc2)CC1` [Compound 236, 2-(3,5-Difluorophenyl)-N-(2-(4-methylpiperazin-1-yl)ethyl)-5-phenyloxazole-4-carboxamide], the inhibition is -8% (30 µM) and -7% (100 µM).
The matching figures for `CN(C)CCNC(=O)c1nc(-c2cc(F)cc(F)c2)oc1-c1ccccc1[N+](=O)[O-]` [Compound 237, 2-(3,5-Difluorophenyl)-N-(2-(dimethylamino)ethyl)-5-(2-nitrophenyl)oxazole-4-carboxamide]: -34% and -16%.
The matching figures for `CN1CCN(CCNC(=O)c2nc(-c3cccc(Cl)c3)oc2-c2ccccc2)CC1` [Compound 241, 2-(3-Chlorophenyl)-N-(2-(4-methylpiperazin-1-yl)ethyl)-5-phenyloxazole-4-carboxamide]: 31% and 38%.
The matching figures for `CN(C)CCNC(=O)c1nc(-c2cccc(Cl)c2)oc1-c1ccccc1[N+](=O)[O-]` [Compound 242, 2-(3-Chlorophenyl)-N-(2-(dimethylamino)ethyl)-5-(2-nitrophenyl)oxazole-4-carboxamide]: -14% and -12%.
With `CN1CCN(CCNC(=O)c2nc(-c3cccc(Cl)c3)oc2-c2ccccc2[N+](=O)[O-])CC1` [Compound 243, 2-(3-chlorophenyl)-N-(2-(4-methylpiperazin-1-yl)ethyl)-5-(2-nitrophenyl)oxazole-4-carboxamide], the inhibition runs as follows: (30 µM) 14%; (100 µM) -6%.
Take `CN(C)CCNC(=O)c1nc(-c2ccc(Cl)cc2)oc1-c1ccccc1` [Compound 244, 2-(4-Chlorophenyl)-N-(2-(dimethylamino)ethyl)-5-phenyloxazole-4-carboxamide]: the inhibition amounted to 0% (30 µM) and 38% (100 µM).
Take `CN1CCN(CCNC(=O)c2nc(-c3ccc(Cl)cc3)oc2-c2ccccc2)CC1` [Compound 245, 2-(4-Chlorophenyl)-N-(2-(4-methylpiperazin-1-yl)ethyl)-5-phenyloxazole-4-carboxamide]: the inhibition reads like this: (30 µM) 15%; (100 µM) 26%.
In the same order, the values of `CN1CCN(CCNC(=O)c2nc(-c3ccc(Cl)cc3)oc2-c2ccccc2[N+](=O)[O-])CC1` [Compound 247, 2-(4-Chlorophenyl)-N-(2-(4-methylpiperazin-1-yl)ethyl)-5-(2-nitrophenyl)oxazole-4-carboxamide] are 8% and 32%.
The matching figures for `CN1CCN(CCNC(=O)c2nc(-c3ccc(C#N)cc3)oc2-c2ccccc2)CC1` [Compound 250, 2-(4-Cyanophenyl)-N-(2-(4-methylpiperazin-1-yl)ethyl)-5-phenyloxazole-4-carboxamide]: 14% and 9%.
In the same order, the values of `CN(C)CCNC(=O)c1nc(-c2ccc(C#N)cc2)oc1-c1ccccc1[N+](=O)[O-]` [Compound 251, 2-(4-Cyanophenyl)-N-(2-(dimethylamino)ethyl)-5-(2-nitrophenyl)oxazole-4-carboxamide] are -6% and -21%.

Source of the values: patent publication US20240287052A1, “NOVEL OXAZOLE DERIVATIVE AND PHARMACEUTICAL COMPOSITION FOR PREVENTING OR TREATING ALLERGIC DISEASES COMPRISING THE SAME” (AZCURIS CO., LTD., priority 2021, published 2024).
